# Like-named read-outs stand apart in the source and are kept apart here.
# Target: T1, BpGCDH; glutaryl-CoA dehydrogenase from B. pseudomallei (Burkholderia pseudomallei, UniProt Q3JP94)
# T1 construct: gene BURPS1710b_3237
# Conditions: apo crystal without FAD, pH 7.5, individual soak 10-25 mM
# T1 sequence (Q3JP94 1-395 limits assumed): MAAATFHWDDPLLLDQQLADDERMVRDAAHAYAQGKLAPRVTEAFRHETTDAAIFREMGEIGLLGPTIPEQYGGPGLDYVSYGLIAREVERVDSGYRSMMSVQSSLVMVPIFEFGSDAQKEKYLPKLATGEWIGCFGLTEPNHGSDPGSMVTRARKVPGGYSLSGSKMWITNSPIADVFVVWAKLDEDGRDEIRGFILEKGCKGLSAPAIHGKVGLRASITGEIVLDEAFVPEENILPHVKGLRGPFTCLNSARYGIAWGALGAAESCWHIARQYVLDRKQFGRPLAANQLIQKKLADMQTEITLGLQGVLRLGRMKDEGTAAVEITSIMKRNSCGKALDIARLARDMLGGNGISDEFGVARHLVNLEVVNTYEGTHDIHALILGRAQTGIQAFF
compound,measurement,setting,value
COC(=O)c1cccs1 [FOL544],X-ray crystal structure (fragment soak),"glutaryl (substrate) site, one active site per tetramer",FOL544 (methyl thiophene-2-carboxylate; PDB entry 3d6b)
"CN1CCN(C)c2cc(CN)ccc21 [FOL680, (1,4-dimethyl-1,2,3,4-tetrahydroquinoxalin-6-yl)methylamine]",X-ray crystal structure (fragment soak),"flavin site of FAD, second molecule in substrate site of one protomer, three per tetramer",FOL680 occupies the binding site for the flavin ring of the FAD cofactor
"CC(C)n1c(S(=O)(=O)O)nc2ccccc21 [FOL6421, 1-(1-methylethyl)-1H-benzimidazole-2-sulfonate]",X-ray crystal structure (fragment soak),"glutaryl (substrate) site, all four active sites, HEPES also modelled at tetramer interface",FOL6421 (PDB entry 3gnc) was observed bound in all four active sites of tetrameric BpGCDH

# — paper PMC3169403 (Acta Crystallographica Section F: Structural Biology and …, 2011)
